Converted amounts (≈) assume the structure as drawn. Residues, ends and D or L forms follow the SMILES beside them.
Assays:
[1] = system: Bacillus subtilis ATCC 6633; test: Modified MBC determination; assay type: cell-based; settings: Table 2
Protocol: (§1) The minimum bactericidal concentration (MBC) was determined as previously described with minor modifications. Briefly, bacteria were cultured in the mid-log phase and diluted to 5 × 10^5 colony-forming unit (CFU)/mL in 10 mM sodium phosphate buffer (pH 7.4) with a 1% volume of TS broth. They were incubated for 1 h with various peptides which were two-fold diluted serially from 64 μg/mL to 0 μg/mL concentrations in a 96-well plate. The samples were inoculated TS agar plate and incubated overnight at 37 °C. The value of MBC was determined at the lowest concentrations at which no colonies were identified.
(§2) We used the CFU counting method to measure antibacterial activity, with all bacteria cultured to the mid-log phase in an appropriate broth medium. Bacterial CFUs were counted after overnight culture at 37 °C on TS or LB agar plates. The MBC value and antibacterial activity in blood components were determined as previously described. Mouse and human whole blood were collected and diluted with PBS (pH 7.4) to measure the ex vivo antibacterial activity of AMPR-22. For that test, AMPR-22 (10 μg) was added to each whole blood solution and incubated at 37 °C with shaking at 200 rpm. At each time point, it was incubated with bacteria (1 × 10^3 CFU) for 30 min. Each sample was inoculated on an LB agar plate, and CFU counting was performed. To measure the in vivo activity of AMPR-22, 1 × 10^8 CFU of bacteria were injected into BALB/c mice, and an hour later, 10 mg/kg of the test peptides were injected. Blood samples were collected by tail cut, serially diluted with PBS (pH 7.4), and inoculated on LB-agar plates, followed by CFU counting. To estimate the functional half-life of AMPR-22, 40 mg/kg of each tested peptide were injected into mice. Whole blood sampling was performed by cardiac puncture, and the plasma was isolated by centrifugation (2000× g, 15 min). The isolated plasma was incubated with bacteria (1 × 10^3 CFU) for an hour, and then the CFU counting method was performed.

[2] = system: Streptomyces sindenensis ATCC 23963; test: Modified MBC determination; assay type: cell-based; settings: Table 2
Protocol: as §1, §2

[3] = system: Klebsiella pneumoniae ATCC 13883; test: Modified MBC determination; assay type: cell-based; settings: Table 2
Protocol: as §1, §2

[4] = system: Enterobacter aerogenes ATCC 13048; test: Modified MBC determination; assay type: cell-based; settings: Table 2
Protocol: as §1, §2

[5] = system: Acinetobacter baumannii ATCC 19606; test: Modified MBC determination; assay type: cell-based; settings: Table 2
Protocol: as §1, §2

[6] = system: Escherichia coli ATCC 25922; test: Modified MBC determination; assay type: cell-based; settings: Table 2
Protocol: as §1, §2

[7] = system: Enterococcus faecalis ATCC 19433; test: Modified MBC determination; assay type: cell-based; settings: Table 2
Protocol: as §1, §2

[8] = system: Enterococcus faecium ATCC 19434; test: Modified MBC determination; assay type: cell-based; settings: Table 2
Protocol: as §1, §2

[9] = system: Carbapenem-resistant K. pneumoniae, clinical isolate; assay type: cell-based, Klebsiella pneumoniae; settings: 1 h
Text: Acinetobacter baumannii (ATCC 19606), B. subtilis (ATCC 6633), E. aerogenes (ATCC 13048), E. coli (ATCC 25922), E. faecalis (ATCC 19433), E. faecium (ATCC 19434), K. pneumoniae (ATCC 13883), P. aeruginosa (ATCC 27853), S. aureus (ATCC 29213), S. sindenensis (ATCC 23963), and MRSA (ATCC 33591) were purchased from the American Type Culture Collection (ATCC; Gaithersburg, MD, USA). Streptococcus pneumoniae (NCCP 14585), vancomycin-resistant E. faecium (NCCP 11522), and vancomycin-resistant S. aureus (NCCP 15872) were purchased from the National Culture Collection for Pathogens (NCCP; Cheongju, Korea). The isolation and use of carbapenem-resistant bacterial strains from a patient were approved (2015AN0129) by the Institutional Review Board (IRB) of Korea University Hospital. […]
The minimum bactericidal concentration (MBC) was determined as previously described with minor modifications. […] The value of MBC was determined at the lowest concentrations at which no colonies were identified.
(§3) We used the CFU counting method to measure antibacterial activity, with all bacteria cultured to the mid-log phase in an appropriate broth medium. Bacterial CFUs were counted after overnight culture at 37 °C on TS or LB agar plates. The MBC value and antibacterial activity in blood components were determined as previously described. […]

[10] = system: P. aeruginosa or S. aureus; assay type: in vitro ADME
Protocol: Figure 4 The antibacterial activity of AMPR-22 in various physiological conditions. (A,B) Effects of AMPR-22 activity in mouse plasma and human serum. AMPR-22 was incubated with blood components for the indicated times (0, 15, 30, 60, 90, 120, 150, and 180 min) and then with P. aeruginosa or S. aureus for an hour. (C,D) Effects of AMPR-22 activity in low-density lipoprotein (LDL), high-density lipoprotein (HDL), and bovine serum albumin. AMPR-22 was incubated with blood components for the indicated times (0, 30, 60, 120, and 180 min) and then with P. aeruginosa or S. aureus for an hour. (E) Effects of AMPR-22 activity in whole blood. AMPR-22 was incubated with mouse and human whole blood for the indicated times (0, 30, 60, 90, 120, and 180 min) and then with P. aeruginosa for an hour. (F,G) The antibacterial activity of AMPR-22 in vivo. AMPR-22 was intravenously administered into P. aeruginosa-infected mice, and blood was collected from the tail veins of the mice at the indicated times (0, 15, 30, 60, and 90 min). (F) The relative CFU in blood samples was calculated using the following formula: CFU at indicated time ÷ CFU at 0 min × 100 (%). (G) The relative CFU of blood samples obtained from F was re-graphed using the following formula: CFU of AMPR-22-treated mouse group ÷ CFU of control (PBS) group × 100 (%). (H) The functional half-life measurement of AMPR-22. AMPR-22 was intravenously administered into mice, and blood was collected at the indicated times (0, 5, 30, 60, 90, 120, 150, and 180 min). The blood was collected by cardiac puncture, and the plasma was isolated by centrifugation. Then, the plasma was incubated with P. aeruginosa for an hour. The antibacterial activity was measured using a colony-forming unit assay. […]
as §3

## CC[C@H](C)[C@H](NC(=O)CNC(=O)CNC(=O)[C@@H](NC(=O)[C@H](C)NC(=O)[C@H](CCSC)NC(=O)[C@H](Cc1ccccc1)NC(=O)[C@@H](NC(=O)CNC(=O)[C@H](Cc1ccccc1)NC(=O)[C@H](CCCCN)NC(=O)CNC(=O)CNC(=O)[C@H](CCCCN)NC(=O)[C@H](CCCCN)NC(=O)[C@H](CCSC)NC(=O)[C@H](CCSC)NC(=O)[C@H](CCCCN)NC(=O)[C@@H](N)CCCCN)[C@@H](C)O)[C@@H](C)CC)C(=O)N[C@@H](CCCNC(=N)N)C(=O)O [AMPR-22] (H-KKMMKKGGKFGTFMAIGGIR-OH)
[1]
  MBC Value, Bacillus subtilis: 1 µg/mL (≈ 0.457 µM)
[2]
  MBC Value, Streptomyces sindenensis: 2 µg/mL (≈ 0.915 µM)
[3]
  MBC Value, Klebsiella pneumoniae: 1 µg/mL (≈ 0.457 µM)
[4]
  MBC Value, Enterobacter aerogenes: 2 µg/mL (≈ 0.915 µM)
[5]
  MBC Value, Acinetobacter baumannii: 1 µg/mL (≈ 0.457 µM)
[6]
  MBC Value, Escherichia coli: 1 µg/mL (≈ 0.457 µM)
[7]
  MBC Value, Enterococcus faecalis: 4 µg/mL (≈ 1.83 µM)
[8]
  MBC Value, Enterococcus faecium: 4 µg/mL (≈ 1.83 µM)
[9]
  MBC Value, Carbapenem-resistant K. pneumoniae: 4 µg/mL (≈ 1.83 µM)
[10]
  Antibacterial activity in presence of human LDL, HDL or bovine serum albumin: not affected
  Functional half-life in vitro: around 90 min
  Half-life of antibacterial activity in mouse plasma and human serum: longer than that of AMPR-11
